Laboratory results reported in publication PMC6814738, “Bacterial MgrB peptide activates chemoreceptor Fpr3 in mouse accessory olfactory system and drives avoidance behaviour” (Nature Communications, 2019).
Entries after “also recorded” stand apart in the source; their conditions may differ. Peptide text beside a SMILES is read from it. * marks the point of attachment. For = O=C*

What was measured:
[1] = test system: vomeronasal sensory neurons (VSNs); experiment: Density of responding VSN knobs in mice of various genotypes, Rhod-2 Ca2+ imaging (Fig. 7a, b); type: cell-based, mouse; conditions: f-MKKFRW 1 µM or PUM; for density of responding knobs: mean ± s.d.
Description: Mice (6–20 week old, either sex) were euthanized by CO2 inhalation according to institutional guidelines. After decapitation, the skin was removed from the skull, the mandible was cut off and the cranium was opened by a sagittal cut, 1–2-mm right-lateral in parallel to the midline. The palate and the right incisor were removed and the hemisected skull was mounted in low-melting agarose (4%). The bony capsule of the VNO was opened with fine forceps and the nonsensory epithelium was stripped off. Tissue and cell debris were gently washed off, and the en face preparation was superfused with physiological S1 solution (120 mM NaCl, 25 mM NaHCO3, 5 mM KCl, 1 mM MgSO4, 1 mM CaCl2, 10 mM glucose, 5 mM BES, pH 7.3) saturated with carbogen (95% O2, 5% CO2).
Loading of the VNE with Rhod-2/AM (5–15 µM, 1 h) was performed in S1 solution under carbogen atmosphere at RT. Images were taken with an upright confocal laser scanning microscope (Leica TCS SP5 II, 20x water immersion objective HCX APO L20x/1.0w) equipped with Ar and He/Ne lasers. GFP was excited at 488 nm, Venus at 514 nm and Rhod-2 at 543 nm. Emission was measured at 490–520 nm (GFP), 520–600 nm (Venus) and 560–680 nm (Rhod-2). To minimise interference between Venus and Rhod-2 fluorescence, images were taken sequentially (sample interval per image, 3–4 s). Peptide stimuli were applied to the VNE surface with a local perfusion system which, when positioned close to the anterior end of the VNO, produced a continuous solution stream from rostral to caudal along the VNO axis. Data analysis was performed with the open source software ImageJ (NIH). Ca^2+ responses of individual dendritic knobs were normalised to the knob resting fluorescence level obtained before stimulation (ratio Fx/F0, Fx = actual fluorescence; F0 = mean fluorescence of 3–5 images before ligand application). Mapping was performed by superimposing Ca^2+ peak images onto images showing intrinsic fluorescence for specific markers.
Predator urine mix was composed of urine from mountain lion, coyote, bobcat, fox and marten (at equal volume ratios), purchased from Predatorpee (USA) and Kieferle (Germany). The fMet peptides were as described above. Stimuli were applied in S2 solution (140 mM NaCl, 5 mM KCl, 10 mM HEPES, 1 mM CaCl2, 1 mM MgCl2, 10 mM glucose, pH 7.3 with NaOH).
For calculations of VSN knob density, we analysed randomly selected VNE areas, each containing several hundred knobs. The mean density of OMP-GFP+ knobs was 11.25 knobs/100 µm². Through the knob density and the VNE surface area, an estimate of the total number of VSNs per VNO can be made. Assuming a mean lumen diameter of 450 µm, a length of 2 mm and an end-to-end semilunar cross-sectional shape of the VNO, a number of ~150,000 VSNs (per side) can be estimated. This number is consistent with our previous estimates.

mouse Fpr3 (Fpr-rs1) = biological target: T1, mouse Fpr3 (Fpr-rs1) (Mus musculus, UniProt O08790); experiment: Concentration-response Ca2+ imaging of Fpr3-transfected HEK293T cells (Fig. 2f, h, j); type: cell-based; conditions: Ca2+ responses of Fpr3-transfected HEK293T; Fluo-4/AM, FLIPR; buffer C1 pH 7.2; Fig. 2f, h, j
T1 construct: expressed in transfected cells; host or cells: HEK293T (DSMZ # ACC-635), transient transfection with jetPEI
T1 sequence (O08790 1-351): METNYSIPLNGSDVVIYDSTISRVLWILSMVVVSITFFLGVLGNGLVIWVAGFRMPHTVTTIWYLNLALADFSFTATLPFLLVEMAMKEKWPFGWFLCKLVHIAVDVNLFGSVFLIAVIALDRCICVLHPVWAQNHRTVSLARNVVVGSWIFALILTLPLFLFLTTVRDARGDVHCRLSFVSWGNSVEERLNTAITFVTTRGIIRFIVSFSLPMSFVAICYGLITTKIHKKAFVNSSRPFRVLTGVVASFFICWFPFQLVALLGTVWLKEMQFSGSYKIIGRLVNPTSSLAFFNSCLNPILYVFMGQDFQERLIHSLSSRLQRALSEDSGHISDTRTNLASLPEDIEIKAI
Experimental: An Fpr3 gene subcloned from genomic DNA of C57BL/6J mice into pcDNA3.1 (Invitrogen) was used in heterologous experiments[21],[80]. HEK293T (DSMZ # ACC-635) cells were seeded at 20–30% confluence on poly-D-lysine-coated (10 µg/ml in PBS) black 96-well µCLEAR-Plates (Greiner Bio-One). Cells were transfected 24 h later using jetPEI™ (Polyplus-transfection SA) according to the manufacturer’s protocol for 96-well transfections. For Ca^2+ imaging experiments, 0.125 µg of DNA plasmid encoding Fpr3 were cotransfected with equal amounts of a plasmid encoding Gα16, a promiscuous G protein α-subunit. Ca^2+ signals to agonist stimulation were recorded 48 h post transfection using the Ca^2+ indicator dye Fluo-4/AM (Molecular Probes) and a fluorescence imaging plate reader (FLIPR) system (Molecular Devices).
We used custom-made peptides with a length of 6–21 amino acids to screen for agonists. Sequences of fMet peptides were designed according to motifs present at the N-termini of 15,125 specific bacterial proteins as annotated in UniProt. Peptides were chemically synthesised, purified, and verified by mass spectroscopy (MALDI-TOF) by commercial suppliers. […] Source, sequence and purity of each peptide are listed in Supplementary Data 1. Lyophilised peptides were routinely dissolved in the Ca^2+ imaging assay buffer C1 (130 mM NaCl, 10 mM HEPES, 5 mM KCl, 2 mM CaCl2, 5 mM glucose, pH 7.2) as 0.2–1 mM stock solutions and kept in small aliquots at −20 °C until use.

[2] = B6, B2m-Venus+/− and NP2∆+/− mice pooled, n = 14 mice

CSCC[C@H](NC=O)C(=O)N[C@@H](CCCCN)C(=O)N[C@@H](CCCCN)C(=O)N[C@@H](Cc1ccccc1)C(=O)N[C@@H](CCCNC(=N)N)C(=O)N[C@@H](Cc1c[nH]c2ccccc12)C(=O)O [f-MKKFRW] (For-MKKFRW-OH)
VSN Ca2+ responses, in words ([1]; 129Sv mice): no responses; also recorded: fail to respond | density of responding knobs ([1]; B2m-Venus +/−): 0.2 ± 0.1% | density of responding knobs ([1]; B6): 0.12 ± 0.04% | density of responding knobs ([1]; NP2∆ +/−): 0.2 ± 0.09% | VSN Ca2+ responses, in words ([1]; Trpc2 −/− mice): absent; also recorded: fail to respond | VSN Ca2+ responses, in words ([1]; cGαo −/− mice): absent; also recorded: fail to respond | density of responding knobs, mean [1, 2]: 0.16 ± 0.08% | density of responding knobs, range [1, 2]: 0.07 to 0.29% | VSN Ca2+ responses, in words ([1]; ∆Fpr3-lacZ −/− mice): absent; also recorded: fail to respond | EC50 (mouse Fpr3 (Fpr-rs1)): 7.7 µM
